Assay results taken from US20130266636A1, “METHODS FOR BLOCKING CELL PROLIFERATION AND TREATING DISEASES AND CONDITIONS RESPONSIVE TO CELL GROWTH INHIBITION” (THE REGENTS OF THE UNIVERSITY OF CALIFORNIA, priority 2010, published 2013).

Key:
[1] = biological target: T1, phospho-S338 c-RAF (CRAF) (Homo sapiens, UniProt P04049); assay: Phospho-S338 CRAF staining in orthotopic MDA-MB-231 breast cancer tissues; format: in vivo, mice; conditions: systemic KG5 50 mg/kg i.p. bid, 3 days
T1 construct: immunofluorescent staining of phospho-S338 c-RAF (CRAF) in orthotopic breast cancer tissues untreated or systemically treated with KG5; from tissue; host or cells: orthotopic MDA-MB-231 tumours in nude mice
T1 sequence (P04049 whole entry): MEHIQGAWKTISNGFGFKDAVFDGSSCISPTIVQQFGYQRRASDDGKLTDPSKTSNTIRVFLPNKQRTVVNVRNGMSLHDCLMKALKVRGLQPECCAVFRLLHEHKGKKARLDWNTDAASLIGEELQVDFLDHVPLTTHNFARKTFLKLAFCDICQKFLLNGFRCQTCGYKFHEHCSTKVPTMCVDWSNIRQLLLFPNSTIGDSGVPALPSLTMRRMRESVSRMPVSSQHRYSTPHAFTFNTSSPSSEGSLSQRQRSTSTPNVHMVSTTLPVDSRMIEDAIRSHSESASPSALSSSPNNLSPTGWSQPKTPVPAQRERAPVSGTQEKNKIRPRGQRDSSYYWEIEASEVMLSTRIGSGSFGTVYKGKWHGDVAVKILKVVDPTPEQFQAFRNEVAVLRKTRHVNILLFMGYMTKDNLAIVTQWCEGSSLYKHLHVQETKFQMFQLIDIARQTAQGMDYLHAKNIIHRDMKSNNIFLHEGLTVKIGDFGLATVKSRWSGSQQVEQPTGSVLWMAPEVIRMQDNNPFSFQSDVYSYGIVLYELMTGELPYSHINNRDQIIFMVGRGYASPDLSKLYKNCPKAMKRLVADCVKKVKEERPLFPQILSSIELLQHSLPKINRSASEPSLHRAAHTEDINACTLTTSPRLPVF
Method: FIG. 4 illustrates the effect of KG5 on orthotopic MDA-MB-231 breast cancer cells after three days, as further discussed in Example 1, below.
FIG. 4 illustrates an immunofluorescent staining of phospho-S338 c-RAF (CRAF) in orthotopic breast cancer tissues untreated or systemically treated with KG5 for 3 days.
Tumors were generated by injection of MDA-MB-231 human breast carcinoma cells (2×10^6 tumor cells in 50 μl of sterile PBS) into the mammary fatpad of 6-8 week old female nude mice. Tumors were established for 2 weeks before beginning dosing. Mice were dosed with vehicle (10% HS-15) or 50 mg/kg KG5 (i.p. bid) for 3 days prior to harvest. All research was conducted under protocols approved by the UCSD animal subjects committee and in accordance with the guidelines set forth in the NIH Guide for the Care and Use of Laboratory Animals.
Immunostaining was performed according to the manufacturer's recommendations (Vector Labs), on […] sections of paraffin-embedded tumors from the orthotopic xenograft breast and brain cancer mouse models, the subcutaneous tumor mouse model or from human patients diagnosed with breast or brain cancer (as approved by the Institutional Review Board at University of California, San Diego). Antigen retrieval was performed in citrate buffer pH 6.0 at 95° C. for 20 min. […]

[2] = biological target: RAF dimerization (BRAF and CRAF) (Homo sapiens, UniProt P04049); assay: RAF dimerization, immunoblot of BRAF and CRAF immunoprecipitates from XPA-1 cells; format: cell-based; parameters: immunoblot analysis of BRAF and CRAF immunoprecipitates from XPA-1 cells; endogenous in cells; host or cells: XPA-1
RAF dimerization (BRAF and CRAF), sequence (P04049 whole entry): as above
Method: FIGS. 6 and 7 illustrate immunoblot analysis of CRAF immunoprecipitated from XPA-1 cells treated with KG5 and KG38.
FIG. 14 illustrates immunoblot analysis of BRAF and CRAF immunoprecipitates from XPA-1 cells treated with PD0325901, Sorafenib, L-779450, PLX4720, KG5 or KG1.
Immunoprecipitation and Immunoblot Analysis Cells were lysed in either NP40 lysis buffer (150 mM NaCl, 50 mM Tris Base pH 7.4, 1% NP40) or RIPA buffer (50 mM Tris pH 7.4, 100 mM NaCl, 0.1% SDS) supplemented with complete protease inhibitor mixture (Roche), 50 mM NaF and 1 mM Na3VO4 and centrifuged at 13,000×g for 10 min at 4° C. Protein concentration was determined by BCA assay. […] of protein were immunoprecipitated with […] of anti-Flag (Sigma), anti-CRAF (BD Pharmingen), anti-Plk1 (Abcam), anti-γ-Tubulin (sigma) or anti-cenpF (Santa Cruz) antibodies overnight at 4° C. followed by capture with 25 μl of protein A/G (Pierce). Beads were washed five times, eluted in boiling Laemmli buffer, resolved on 10% SDS-PAGE and immunoblotting was performed with anti-Plk1 antibody (Abcam), anti-CRAF antibody (BD Pharmingen), anti-Aurora A (Abcam), anti-phospho-S338 CRAF (Cell Signaling), anti-phospho-T210 Plk1 or anti-phospho-T288 Aurora A (Cell signaling) diluted 1:1000. For immunoblot analysis, […] of protein was boiled in […]

[3] = test system: U-87 human glioblastoma cells; assay: Cells in pro-metaphase in orthotopic brain tumor xenografts; format: in vivo, mice; conditions: systemic KG5 50 mg/Kg, after three days
Method: Phosphorylation of CRAF on serine 338 has been linked to cell proliferation survival as well as breast cancer progression^9-11,14-16. To determine whether KG5 could similarly regulate phospho-5338 RAF in tumors, we analyzed orthotopic […] and brain tumor tissues for the presence of this marker before or after systemic delivery of the drug.
Tumors were generated by injection of RFP-labeled U-87 human glioblastoma cells (10^5 tumorcells in 2 μl of sterile PBS) into the brain of 6-8 week old female nude mice. Tumors were established for 3 weeks before beginning dosing. Mice were dosed with vehicle (10% HS-15) or 50 mg/kg KG5 (i.p. bid) for 3 days prior to harvest. Alternatively, U-87 cells stably expressing WT CRAF or the phospho-mimetic S338D CRAF mutant were injected into the brain of 6-8 week old female nude mice. Brains were harvested at day 15 and fluorescence images recorded using the IVIS-200™ imaging system (Xenogen Corp., Hopkinton, Mass.). Tumor sizes were measured as a function of fluorescence intensity using the ROI function of the IVIS Living Image Software. […]

CSc1nc(N)cc(Oc2ccc(-c3nnc(Nc4cccc(C(F)(F)F)c4)[nH]3)cc2)n1 [KG5]
phospho-S338 CRAF in orthotopic breast cancer tissues [1]: qualitative decrease in phospho-5338 RAF | phospho-S338 CRAF in orthotopic breast cancer tissues ([1]; 50 mg/kg): inhibits serine 338 phosphorylation of CRAF | RAF dimerization [2]: prevents RAF dimerization | cells at pro-metaphase in orthotopic brain tumor tissues [3]: accumulation of cells at pro-metaphase
